Assay results as given in ChEMBL document CHEMBL2413072, “Synthesis and in vitro anticancer studies of novel C-2 arylidene congeners of lantadenes” (2013).

Key:
Type in all cases: functional
UO-31 = assay: Growth inhibition of human UO31 cells assessed as cell growth at 10^-6 M by sulforhodamine B assay; settings: read-out: Activity
HCT-15 = assay: Growth inhibition of human HCT15 cells by sulforhodamine B assay
MDA-MB-231 = assay: Growth inhibition of human MDA-MB-231 cells by sulforhodamine B assay
SNB-19 = assay: Growth inhibition of human SNB19 cells assessed as cell growth at 10^-4 M by sulforhodamine B assay; settings: read-out: Activity
KM12 = assay: Growth inhibition of human KM12 cells assessed as cell growth at 10^-4 M by sulforhodamine B assay; settings: read-out: Activity
IGROV-1 = assay: Growth inhibition of human IGROV1 cells assessed as cell growth at 10^-8 M by sulforhodamine B assay; settings: read-out: Activity
M14 = assay: Growth inhibition of human M14 cells by sulforhodamine B assay
COLO 205 = assay: Growth inhibition of human COLO205 cells assessed as cell growth at 10^-8 M by sulforhodamine B assay; settings: read-out: Activity
OVCAR-8 = assay: Growth inhibition of human OVCAR8 cells assessed as cell growth at 10^-7 M by sulforhodamine B assay; settings: read-out: Activity
MCF7 = assay: Growth inhibition of human MCF7 cells by sulforhodamine B assay
OVCAR-4 = assay: Growth inhibition of human OVCAR4 cells assessed as cell growth at 10^-4 M by sulforhodamine B assay; settings: read-out: Activity
MDA-MB-435 = assay: Growth inhibition of human MDA-MB-435 cells assessed as cell growth at 10^-8 M by sulforhodamine B assay; settings: read-out: Activity
A498 = assay: Growth inhibition of human A498 cells by sulforhodamine B assay
T47D = assay: Growth inhibition of human T47D cells assessed as cell growth at 10^-4 M by sulforhodamine B assay; settings: read-out: Activity
SF-539 = assay: Growth inhibition of human SF539 cells assessed as cell growth at 10^-4 M by sulforhodamine B assay; settings: read-out: Activity
SR = assay: Growth inhibition of human SR cells assessed as cell growth at 10^-6 M by sulforhodamine B assay; settings: read-out: Activity
Malme-3M = assay: Growth inhibition of human MALME-3M cells by sulforhodamine B assay
[1] = read-out: LC50 (the source's name)
[2] = read-out: pLC50 (the source's name) (converted)

For `CC(C)=CC(=O)O[C@@H]1CC(C)(C)C[C@H]2C3=CC[C@@H]4[C@@]5(C)CC[C@H](O)C(C)(C)[C@@H]5CC[C@@]4(C)[C@]3(C)CC[C@@]12C(=O)O` [Reduced Lantadene B], the growth at 1 µM (UO-31) was 89%, the GI50 (HCT-15; read-out: GI50) was 1.56 µM and the LC50 (50% lethal concentration) (HCT-15; read-out: LC50) was greater than 100 µM. For the same molecule, the TGI (HCT-15; read-out: TGI) was 19.2 µM, the GI50 (HCT-15; read-out: pGI50 (converted)) was 1.55 µM and the LC50 (50% lethal concentration) (HCT-15; read-out: pLC50 (converted)) was greater than 100 µM. The TGI (HCT-15; read-out: pTGI (converted)) was 19.1 µM, the GI50 (MDA-MB-231; read-out: GI50) was 4.56 µM and the CC50 (MDA-MB-231; [1]) was 54.7 µM. The TGI (MDA-MB-231; read-out: TGI) was 19.4 µM, the GI50 (MDA-MB-231; read-out: pGI50 (converted)) was 4.57 µM and the CC50 (MDA-MB-231; [2]) was 55 µM. It also gave a TGI (MDA-MB-231; read-out: pTGI (converted)) of 19.5 µM, a growth at 100 µM (SNB-19) of -62% and a growth at 100 µM (KM12) of -47%. For the same molecule, the growth at 0.01 µM (IGROV-1) was 104%, the GI50 (M14; read-out: GI50) was 7.71 µM and the CC50 (M14; [1]) was 67.8 µM. The TGI (M14; read-out: TGI) was 24.8 µM, the GI50 (M14; read-out: pGI50 (converted)) was 7.76 µM and the CC50 (M14; [2]) was 67.6 µM. It also gave a TGI (M14; read-out: pTGI (converted)) of 24.5 µM, a growth at 0.01 µM (COLO 205) of 107% and a growth at 0.1 µM (OVCAR-8) of 101%. For the same molecule, the GI50 (MCF7; read-out: GI50) was 6.18 µM, the CC50 (MCF7; [1]) was greater than 100 µM and the TGI (MCF7; read-out: TGI) was 30.3 µM. For the same molecule, the GI50 (MCF7; read-out: pGI50 (converted)) was 6.17 µM, the CC50 (MCF7; [2]) was greater than 100 µM and the TGI (MCF7; read-out: pTGI (converted)) was 30.2 µM. For the same molecule, the growth at 100 µM (OVCAR-4) was -39%, the growth at 0.01 µM (MDA-MB-435) was 100% and the GI50 (A498; read-out: GI50) was 2.83 µM. It also gave a CC50 (A498; [1]) of 41.3 µM, a TGI (A498; read-out: TGI) of 13.7 µM and a GI50 (A498; read-out: pGI50 (converted)) of 2.82 µM. It also gave a CC50 (A498; [2]) of 41.7 µM, a TGI (A498; read-out: pTGI (converted)) of 13.8 µM and a growth at 100 µM (T47D) of -17%. The growth at 100 µM (SF-539) was -38%, the growth at 1 µM (SR) was 92% and the GI50 (Malme-3M; read-out: GI50) was 13.7 µM. It also gave a CC50 (Malme-3M; [1]) greater than 100 µM, a TGI (Malme-3M; read-out: TGI) of 38.6 µM and a GI50 (Malme-3M; read-out: pGI50 (converted)) of 13.8 µM. It also gave a CC50 (Malme-3M; [2]) greater than 100 µM and a TGI (Malme-3M; read-out: pTGI (converted)) of 38.9 µM.
